Experimental findings from article PMC8958510 (Journal of Medicinal Chemistry, 2022) are described below.

SMILES strings stand for the structures. ≈ marks a conversion by molar mass, not a printed value.

The subject of one data set is SAMP8 mice. Description: Novel object recognition test (NORT) in SAMP8 mice. The format is in vivo, mouse. The conditions noted are these: 2 mg kg^–1 day^–1 oral, 4 weeks, vs vehicle-treated. From the text:
In Vivo Proof-of-Concept of the Dual sEH / AChE Inhibitor […] in SAMP8 Mice Animals and treatment. The senescence-accelerated mouse-prone 8 (SAMP8) is an accelerated aging model established through phenotypic selection from AKR/J mice by […]
abnormal APP and β-amyloid processing and tau pathology, among others. Likewise, SAMP8 […]
and oxidative stress markers are present at early ages and during adultness.15 In this work, 5-month-old male SAMP8 mice were used to perform behavioral and molecular analyses.
Animals were randomly divided into SAMP8 control (n=8) and SAMP8 treated with 12c […]
(n=8, 2 mg kg‒1 day‒1). The animals had free access to food and water and were kept under standard temperature conditions (22 ± 2 °C) and 12-h/12-h light/dark cycles (300 lux/0 lux).
Compound 12c was dissolved in 1.8% (2-hydroxypropyl)-β-cyclodextrin (Sigma-Aldrich, St.
Louis, MO) and administered through drinking water for 4 weeks (Figure S6 of the Supporting Information). Control groups received water plus 1.8% (2-hydroxypropyl)-β-cyclodextrin during the treatment period. […]
had been replaced by a novel one. The behavior was recorded, and the time that the mice spent exploring the new object (TN) and the old one (TO) were measured manually. […]
The discrimination index (DI) was calculated as (TN‒TO)/(TN+TO). […]

Data set [1] in a line: Kinetic aqueous solubility screen (light scattering). The conditions noted are these: 1% DMSO / 99% PBS.
Description: Aqueous solubility screen. The kinetic aqueous solubility of the target compounds was
(§1) determined at the Innopharma Drug Screening and Pharmacogenomics Platform (Santiago de
Compostela, Spain). Ten mM stock solutions of the tested compounds were serially diluted,
NEPHELOstar Plus reader (BMG LABTECH). The results were adjusted to a segmented
linear regression to obtain the maximum concentration in which the compounds were soluble.
Data set [2] is described as follows: Microsomal stability, rat liver microsomes. It counts as in vitro ADME. Background: Liver microsomes are vesicles of endoplasmic reticulum, rich in cytochrome P450 enzymes.
Description: Microsomal stability screen. The microsomal stability of the target compounds was
as §1
Compostela, Spain). The human, rat and mice pooled microsomes, with a protein content of 20 mg mL‒1, were purchased from Tebu-Xenotech. The compounds were incubated in a 96-well microplate at 37 °C with the microsomes in 50 mM phosphate buffer (pH = 7.4) containing as cofactors 30 mM MgCl2, 10 mM NADP, 100 mM glucose-6-phosphate and 40
Samples (75 µL) were taken from each well at 0, 10, 20, 40 and 60 min and transferred to a microplate. 4 °C Acetonitrile (75 µL) and internal standard (rolipram) were then added for inactivating the microsomes, and water with 0.5% formic acid (30 µL) was subsequently added for improving the chromatographic conditions, keeping the mixtures at 4 °C. The plate was centrifuged at 46,000 g for 30 min at 15 °C and supernatants were taken and analyzed in a UPLC-MS/MS system (UPLC QSM Waters Acquity) using reverse phase Acquity UPLC® HSST3 1.7 μm (2.1 mm × 50 mm, Waters) as the stationary phase, 0.1% formic acid in water (A) / 0.1% formic acid in acetonitrile (B) as the mobile phase, a flow of 0.8 mL min‒1, and the
The metabolic stability of the compounds was calculated from the logarithm of the remaining compound at each of the time points studied.
The next data set concerns the target T1, recombinant mouse sEH (Mus musculus, UniProt P34914).
T1 sequence (P34914 1-554): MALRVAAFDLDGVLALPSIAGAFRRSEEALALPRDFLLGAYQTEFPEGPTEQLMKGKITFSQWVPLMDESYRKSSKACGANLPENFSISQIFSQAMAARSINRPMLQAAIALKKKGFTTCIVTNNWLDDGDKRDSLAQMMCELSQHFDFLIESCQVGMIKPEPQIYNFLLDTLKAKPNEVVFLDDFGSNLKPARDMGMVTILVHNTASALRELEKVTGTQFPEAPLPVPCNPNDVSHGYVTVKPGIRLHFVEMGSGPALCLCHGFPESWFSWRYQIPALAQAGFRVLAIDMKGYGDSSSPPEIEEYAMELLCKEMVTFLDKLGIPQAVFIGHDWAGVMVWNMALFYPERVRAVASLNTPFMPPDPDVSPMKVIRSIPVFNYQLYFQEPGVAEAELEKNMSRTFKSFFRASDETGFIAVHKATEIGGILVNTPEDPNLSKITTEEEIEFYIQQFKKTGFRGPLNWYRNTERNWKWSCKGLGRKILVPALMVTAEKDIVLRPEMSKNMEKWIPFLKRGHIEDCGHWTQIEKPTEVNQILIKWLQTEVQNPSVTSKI
The conditions noted are these: read-out: msEH IC50, average of three replicates.

For another data set, the target named is T2, recombinant human sEH (Homo sapiens, UniProt P34913).
T2 sequence (P34913 1-555): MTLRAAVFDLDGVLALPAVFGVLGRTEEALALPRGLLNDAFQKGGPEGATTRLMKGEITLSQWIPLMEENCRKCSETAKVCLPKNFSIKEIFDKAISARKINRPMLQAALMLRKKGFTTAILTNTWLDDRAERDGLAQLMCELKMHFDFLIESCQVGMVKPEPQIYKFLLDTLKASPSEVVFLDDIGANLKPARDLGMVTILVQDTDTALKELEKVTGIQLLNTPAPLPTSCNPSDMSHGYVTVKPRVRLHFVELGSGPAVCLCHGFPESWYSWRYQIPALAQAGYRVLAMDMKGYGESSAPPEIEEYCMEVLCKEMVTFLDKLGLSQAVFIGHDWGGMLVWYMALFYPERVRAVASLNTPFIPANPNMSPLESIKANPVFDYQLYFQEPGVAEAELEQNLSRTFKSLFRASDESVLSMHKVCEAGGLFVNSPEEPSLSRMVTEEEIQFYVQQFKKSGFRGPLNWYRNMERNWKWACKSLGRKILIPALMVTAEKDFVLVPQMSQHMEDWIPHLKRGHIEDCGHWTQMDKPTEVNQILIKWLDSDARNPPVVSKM
Description: Human soluble epoxide hydrolase inhibition, fluorescence-based assay (CMNPC substrate). The format is biochemical. The conditions noted are these: recombinant human sEH; average of three replicates; read-out: hsEH IC50.

Description for recombinant human sEH: (§2) Human and mouse soluble epoxide hydrolase inhibition assay. The inhibitory activity of
(§3) the target compounds toward human and mouse sEH was determined by a fluorescence-based
(§4) assay, using purified recombinant human or mouse sEH proteins and CMNPC as a fluorescent
(§5) substrate.6 The enzymes were incubated at 30 °C with the inhibitors ([I]final = 0.4-100,000
(§6) nM) for 5 min in 100 mM sodium phosphate buffer (200 µL, pH 7.4) containing 0.1 mg mL‒1
(§7) of BSA and 1% of DMSO. The substrate (CMNPC) was then added ([S]final = 5 µM). Activity
(§8) was assessed by measuring the appearance of the fluorescent 6-methoxynaphthaldehyde
(§9) (Molecular Devices). Results were obtained by regression analysis from a linear region of the
(§10) curve and are given as IC50 values, i.e., the concentration of the compound that reduces the
(§11) sEH activity by 50%. All measurements were performed in triplicate and the mean is
Description for recombinant mouse sEH: as §2, §3, §4, §5, §6, §7, §8, §9, §10, §11

For the molecule `O=C(Nc1ccc(OC(F)(F)F)cc1)NC1CCN(C(=O)CCCCNc2c3c(nc4cc(Cl)ccc24)CCCC3)CC1` [12c, 1-{1-{5-[(6-Chloro-1,2,3,4-tetrahydroacridin-9-yl)amino]pentanoyl}piperidin-4-yl}-3-[4-(trifluoromethoxy)phenyl]urea], the “short-term working memory (NORT discrimination index)” value with SAMP8 mice (2 h retention) was “significantly ameliorated”. Besides, in the data set on SAMP8 mice (24 h retention), the “long-term working memory (NORT discrimination index)” value is reported as “significantly ameliorated”. The solubility at 2 h in data set [1] was determined as 7.5 µM (≈ 4.64 µg/mL). Moreover, the “% compound remaining unaltered, rat microsomes” value came out at 100% in data set [2] (after 10 min), 79% in data set [2] (after 20 min) and 50% in data set [2] (after 40 min). This molecule also had a microsomal CLint at 1 h, 0.05 µM in data set [2] (rat, liver microsomes (pooled), pH 7.4, 37 °C) of 26 µL/min/mg. Moreover, the half-life at 1 h, 0.05 µM in data set [2] (rat, liver microsomes (pooled), pH 7.4, 37 °C, read-out: t1/2, rat microsomes) stood at 26 min. For the same molecule, the amount remaining at 1 h, 0.05 µM in data set [2] (rat, liver microsomes (pooled), pH 7.4, after 1 h of incubation at 37 °C, read-out: % remaining compound, rat microsomes) was determined as 21%. Moreover, the half-inhibitory concentration (IC50) on recombinant mouse sEH came out at 22.5 nM; at recombinant human sEH it was 4.6 nM.

Usually solubility stands for the concentration that dissolves in the medium under given conditions. Read a high solubility as a readily soluble substance. The microsomal CLint is the capacity of the preparation to metabolise the compound, expressed as a volume cleared per time. Lower therefore signals greater metabolic stability. Usually fraction remaining stands for the share of the starting amount still present when the sample was taken. Usually IC50 stands for the concentration that inhibits the measured activity by half.
